Data published in patent US20250221410A1, “SUBSTITUTED 2-C-AZINES AND SALTS THEREOF, AND USE THEREOF AS HERBICIDAL ACTIVE SUBSTANCES” (BAYER AKTIENGESELLSCHAFT, priority 2022, published 2025).

How the values were obtained:
Type in all cases: in vivo
[1] = tested on: AMARE: Amaranthus retroflexus; assay: Pre-emergence herbicide efficacy at 80 g/ha, AMARE; settings: scored visually after about 3 weeks
From the text: Seeds of monocotyledonous and dicotyledonous weed plants and crop plants were placed in plastic or organic planting pots and covered with soil. The compounds of the invention, formulated in the form of wettable powders (WP) or as emulsion concentrates (EC), were then applied to the surface of the covering soil as aqueous suspension or emulsion with addition of 0.5% additive at a water application rate equivalent to 600 l/ha. After the treatment, the pots were placed in a greenhouse and kept under good growth conditions for the test plants. After about 3 weeks, the efficacy of the preparations was scored visually in comparison with untreated controls as percentages. For example, 100% activity=the plants have died, 0% activity=like control plants. Tables D1 to D12 below show the effects of selected compounds of the general formula (I) according to Table 1 on various harmful plants and an application rate corresponding to 80 g/ha, which were obtained by the experimental procedure mentioned above.

[2] = tested on: AMARE: Amaranthus retroflexus; assay: Post-emergence herbicidal efficacy at 80 g/ha, AMARE; settings: visual rating about 3 weeks after treatment vs untreated controls
Experimental: Seeds of monocotyledonous and dicotyledonous weeds and crop plants were placed in sandy loam in plastic or organic planting pots, covered with soil and cultivated in a greenhouse under controlled growth conditions. 2 to 3 weeks after sowing, the test plants were treated at the one-leaf stage. The compounds of the invention, formulated in the form of wettable powders (WP) or as emulsion concentrates (EC), were then sprayed onto the green parts of the plants as aqueous suspension or emulsion with addition of 0.5% additive at a water application rate of 600 l/ha (converted). After the test plants had been kept in the greenhouse under optimum growth conditions for about 3 weeks, the activity of the preparations was rated visually in comparison to untreated controls. For example, 100% activity=the plants have died, 0% activity=like control plants. Tables B1 to B10 below show the effects of selected compounds of the general formula (I) according to Table 1 on various harmful plants and an application rate corresponding to 80 g/ha, which were obtained by the experimental procedure mentioned above.

[3] = tested on: ECHCG: Echinochloa crus-galli; assay: Post-emergence herbicidal efficacy at 1280 g/ha, ECHCG; settings: rated visually after about 3 weeks vs untreated controls, 100% = plants have died, 0% = like control plants
Experimental: (§1) Seeds of mono- and dicotyledonous weed plants were placed in plastic pots in sandy loam soil (doubly sown with in each case one species of mono- or dicotyledonous weed plants per pot), covered with soil and cultivated in a greenhouse under controlled growth conditions. 2 to 3 weeks after sowing, the test plants were treated at the one-leaf stage. The compounds of the invention, formulated in the form of wettable powders (WP) or as emulsion concentrates (EC), were applied to the green parts of the plants as aqueous suspension or emulsion with addition of 0.5% additive at a water application rate equivalent to 600 litres per hectare. After the test plants had been kept in the greenhouse under optimum growth conditions for about 3 weeks, the activity of the preparations was rated visually in comparison to untreated controls. For example, 100% activity=the plants have died, 0% activity=like control plants. Tables A1 to A12 below show the effects of selected compounds of the general formula (I) according to Table 1 on various harmful plants and at an application rate corresponding to 1280 g/ha, which were obtained by the trial procedure specified above.

[4] = tested on: ABUTH: Abutilon theophrasti; assay: Post-emergence herbicidal efficacy at 1280 g/ha, ABUTH; settings: rated visually after about 3 weeks vs untreated controls, 100% = plants have died, 0% = like control plants
Experimental: as §1

VERPE: Veronica persica [5] = assay: Post-emergence herbicidal efficacy at 1280 g/ha, VERPE; settings: visual rating about 3 weeks after treatment vs untreated controls
Experimental: as §1

KCHSC: Kochia scoparia [6] = assay: Post-emergence herbicidal efficacy at 1280 g/ha, KCHSC; settings: visual rating about 3 weeks after treatment vs untreated controls
Experimental: as §1

[7] = tested on: AMARE: Amaranthus retroflexus; assay: Pre-emergence herbicide efficacy at 1280 g/ha, AMARE; settings: visual scoring after about 3 weeks vs untreated controls
From the text: (§2) Seeds of mono- and dicotyledonous weed plants were placed in plastic pots in sandy loam soil (doubly sown with one species each of mono- or dicotyledonous weed plants per pot) and covered with soil. The compounds of the invention, formulated in the form of wettable powders (WP) or as emulsion concentrates (EC), were then applied to the surface of the covering soil as aqueous suspension or emulsion with addition of 0.5% additive at a water application rate of 600 litres per hectare (converted). After the treatment, the pots were placed in a greenhouse and kept under good growth conditions for the test plants. After about 3 weeks, the efficacy of the preparations was scored visually in comparison with untreated controls as percentages. For example, 100% activity=the plants have died, 0% activity=like control plants. Tables C1 to C12 below show the effects of selected compounds of the general formula (I) according to Table 1 on various harmful plants and at an application rate corresponding to 1280 g/ha, which were obtained by the trial procedure specified above.

POAAN: Poa annua [8] = assay: Post-emergence herbicidal efficacy at 1280 g/ha, POAAN; settings: visual rating about 3 weeks after treatment vs untreated controls
Experimental: as §1

[9] = tested on: AMARE: Amaranthus retroflexus; assay: Post-emergence herbicidal efficacy at 1280 g/ha, AMARE; settings: rated visually after about 3 weeks vs untreated controls, 100% = plants have died, 0% = like control plants
Experimental: as §1

STEME: Stellaria media [10] = assay: Post-emergence herbicidal efficacy at 1280 g/ha, STEME; settings: visual rating about 3 weeks after treatment vs untreated controls
Experimental: as §1

[11] = tested on: DIGSA: Digitaria sanguinalis; assay: Pre-emergence herbicide efficacy at 1280 g/ha, DIGSA; settings: visual scoring after about 3 weeks vs untreated controls
From the text: as §2

STEME: Stellaria media [12] = assay: Pre-emergence herbicide efficacy at 1280 g/ha, STEME; settings: visual scoring vs untreated controls
From the text: as §2

[13] = tested on: ABUTH: Abutilon theophrasti; assay: Pre-emergence herbicide efficacy at 1280 g/ha, ABUTH; settings: visual scoring after about 3 weeks vs untreated controls
From the text: as §2

SETVI: Setaria viridis [14] = assay: Pre-emergence herbicide efficacy at 1280 g/ha, SETVI; settings: visual scoring vs untreated controls
From the text: as §2

POAAN: Poa annua [15] = assay: Pre-emergence herbicide efficacy at 1280 g/ha, POAAN; settings: visual scoring after about 3 weeks vs untreated controls
From the text: as §2

[16] = tested on: ECHCG: Echinochloa crus-galli; assay: Pre-emergence herbicide efficacy at 1280 g/ha, ECHCG; settings: visual scoring after about 3 weeks vs untreated controls
From the text: as §2

VERPE: Veronica persica [17] = assay: Pre-emergence herbicide efficacy at 1280 g/ha, VERPE; settings: visual scoring vs untreated controls
From the text: as §2

SETVI: Setaria viridis [18] = assay: Post-emergence herbicidal efficacy at 1280 g/ha, SETVI; settings: visual rating about 3 weeks after treatment vs untreated controls
Experimental: as §1

KCHSC: Kochia scoparia [19] = assay: Pre-emergence herbicide efficacy at 1280 g/ha, KCHSC; settings: visual scoring after about 3 weeks vs untreated controls
From the text: as §2

O=S(=O)(CCC(F)(F)F)Oc1c(F)cccc1Cc1ncc(F)cn1 [Example 1-17]
Pre-emergence efficacy against AMARE in % [1]: 80%
Post-emergence efficacy against AMARE [2]: 90%

FC(F)c1nc(-c2ccccc2Cc2ncc(Cl)cn2)no1 [Example 1-160]
Pre-emergence efficacy against AMARE in % [1]: 100%
Post-emergence efficacy against AMARE [2]: 100%

Fc1ccc(Sc2ccccc2Cc2ncc(Cl)cc2F)cc1 [Example 1-106]
Post-emergence efficacy at 1280 g/ha against ECHCG in % [3]: 90%
Post-emergence efficacy at 1280 g/ha against ABUTH in % [4]: 90%
Post-emergence efficacy against VERPE (VERPE: Veronica persica [5]): 100%
Post-emergence efficacy against KCHSC (KCHSC: Kochia scoparia [6]): 90%
Pre-emergence efficacy against AMARE [7]: 90%
Post-emergence efficacy against POAAN (POAAN: Poa annua [8]): 100%
Post-emergence efficacy at 1280 g/ha against AMARE in % [9]: 100%
Post-emergence efficacy against STEME (STEME: Stellaria media [10]): 100%

Fc1cc(Cl)cnc1Oc1ccccc1Cc1ccc(Cl)cn1 [Example 1-101]
Post-emergence efficacy at 1280 g/ha against ECHCG in % [3]: 90%
Pre-emergence efficacy against DIGSA [11]: 100%
Pre-emergence efficacy against STEME in % (STEME: Stellaria media [12]): 100%
Post-emergence efficacy at 1280 g/ha against ABUTH in % [4]: 90%
Post-emergence efficacy against VERPE (VERPE: Veronica persica [5]): 100%
Pre-emergence efficacy against ABUTH [13]: 90%
Pre-emergence efficacy against AMARE [7]: 100%
Post-emergence efficacy against POAAN (POAAN: Poa annua [8]): 100%
Pre-emergence efficacy against SETVI in % (SETVI: Setaria viridis [14]): 100%
Post-emergence efficacy at 1280 g/ha against AMARE in % [9]: 100%
Pre-emergence efficacy against POAAN (POAAN: Poa annua [15]): 100%
Post-emergence efficacy against STEME (STEME: Stellaria media [10]): 90%
Pre-emergence efficacy against ECHCG [16]: 100%

O=S(=O)(CCC(F)(F)F)Oc1c(Cl)cccc1Cc1ncc(F)cn1 [Example 1-21]
Pre-emergence efficacy against AMARE in % [1]: 90%
Post-emergence efficacy against AMARE [2]: 90%

N#CC(c1ncc(F)cn1)c1ccccc1Cc1ccc(F)cc1 (centres unmarked) [Example 1-81]
Post-emergence efficacy at 1280 g/ha against ECHCG in % [3]: 90%
Post-emergence efficacy at 1280 g/ha against ABUTH in % [4]: 90%
Post-emergence efficacy against VERPE (VERPE: Veronica persica [5]): 90%
Post-emergence efficacy at 1280 g/ha against AMARE in % [9]: 90%
Pre-emergence efficacy against POAAN (POAAN: Poa annua [15]): 100%

Fc1cccc(Cc2ncc(Cl)cn2)c1Oc1ncc(Cl)cn1 [Example 1-151]
Pre-emergence efficacy against AMARE in % [1]: 80%
Post-emergence efficacy against AMARE [2]: 80%

Fc1ccc(Cc2ccccc2Cc2ccc(Cl)cn2)cc1 [Example 1-96]
Post-emergence efficacy at 1280 g/ha against ECHCG in % [3]: 90%
Pre-emergence efficacy against DIGSA [11]: 100%
Post-emergence efficacy at 1280 g/ha against ABUTH in % [4]: 100%
Post-emergence efficacy against VERPE (VERPE: Veronica persica [5]): 100%
Post-emergence efficacy against KCHSC (KCHSC: Kochia scoparia [6]): 90%
Pre-emergence efficacy against ABUTH [13]: 100%
Pre-emergence efficacy against AMARE [7]: 100%
Post-emergence efficacy against POAAN (POAAN: Poa annua [8]): 90%
Pre-emergence efficacy against SETVI in % (SETVI: Setaria viridis [14]): 90%
Post-emergence efficacy at 1280 g/ha against AMARE in % [9]: 100%
Post-emergence efficacy against STEME (STEME: Stellaria media [10]): 90%
Pre-emergence efficacy against ECHCG [16]: 90%

Cc1nc(-c2ccccc2Cc2ncc(Cl)cn2)no1 [Example 1-159]
Pre-emergence efficacy against AMARE in % [1]: 90%
Post-emergence efficacy against AMARE [2]: 80%

Fc1ccc(Cc2ccccc2Cc2ncc(F)cn2)cc1 [Example 1-95]
Pre-emergence efficacy against DIGSA [11]: 90%
Pre-emergence efficacy against STEME in % (STEME: Stellaria media [12]): 100%
Post-emergence efficacy at 1280 g/ha against ABUTH in % [4]: 100%
Post-emergence efficacy against VERPE (VERPE: Veronica persica [5]): 90%
Post-emergence efficacy against KCHSC (KCHSC: Kochia scoparia [6]): 100%
Pre-emergence efficacy against ABUTH [13]: 100%
Pre-emergence efficacy against VERPE in % (VERPE: Veronica persica [17]): 100%
Pre-emergence efficacy against AMARE [7]: 100%
Post-emergence efficacy against POAAN (POAAN: Poa annua [8]): 100%
Post-emergence efficacy against SETVI (SETVI: Setaria viridis [18]): 90%
Post-emergence efficacy at 1280 g/ha against AMARE in % [9]: 100%
Pre-emergence efficacy against KCHSC (KCHSC: Kochia scoparia [19]): 90%
Pre-emergence efficacy against POAAN (POAAN: Poa annua [15]): 90%
Post-emergence efficacy against STEME (STEME: Stellaria media [10]): 100%
Pre-emergence efficacy against ECHCG [16]: 90%

Fc1cnc(Cc2cccc(F)c2Oc2ncc(F)cn2)nc1 [Example 1-153]
Pre-emergence efficacy against AMARE in % [1]: 100%
Post-emergence efficacy against AMARE [2]: 90%
